Key:
Type in all cases: physicochemical
[1] = Viscosity (viscometer/densimeter SVM 3000)
Method: (§1) The equipment used is: • 15 mL flasks • A refrigerated cabinet at 0° C. (Panasonic—MR-154-PE) • 3 mL pipettes • An analytical balance (OHAUS Adventurer Pro AV264C) • A watch glass • A spatula • A tensiometer, brand name K100, sold by KRÜSS GmbH, Borsteler Chaussee 85, 22453 Hamburg, Germany. • A 70 mL crystallizing dish • A platinum blade • KRUSS laboratory software • A viscometer/densimeter SVM 3000—Anton Paar
(§2) The compositions of formulae 19 to 23 and the dispersants of the prior art are tested for surface tension in order to find the wettability thereof, by using a fine plate (called a Wilhelmy plate) connected to an analytical balance. The method of the Wilhelmy blade on the K100 is used. A 70 mL crystallizing dish filled with 30 mL of product to be tested is placed in the K100. The platinum blade is arranged over the product. The KRUSS Laboratory software determines the surface tension of the liquid, via the force felt by the blade in the liquid. The viscosity and the density are also measured.

[2] = Density (viscometer/densimeter SVM 3000)
Method: as §1, §2

[3] = Surface tension, Wilhelmy blade method on the K100 tensiometer
Method: as §1, §2

- Viscosity at 20° C. [1]: 1.7 mm^2/s
- Density at 20° C. [2]: 1.03 g/mL
- Surface tension at 20° C. [3]: 40 mN/m
SMILES: CN1CCCC1=O [NMP, N-methyl-2-pyrrolidone]

From US20190191695A1, “DISSOLVENT COMPOSITION, STABLE UNDER COLD CONDITIONS” (OLEON NV, priority 2016, published 2019)
